Test results from patent US20070117836A1, “NAPTHALIMIDE DERIVATIVES, METHODS FOR THEIR PRODUCTION AND PHARMACEUTICAL COMPOSITIONS THEREFROM” (priority 2004, published 2007).
Like-named read-outs stand apart in the source and are kept apart here.

Assays:
[1] = system: Six human cancer cell lines (Hs683, U-373MG, HCT-15, LoVo, A549, MCF-7); assay: MTT test of overall cell growth; assay type: cell-based; conditions: range of molar concentrations giving 50% inhibition of overall tumor cells growth, MTT, 72 hours incubation, six human cancer cell lines, read-out: IC50
Description: In order to characterize the in vitro activity of the compounds of the invention, MTT tests were performed to indirectly and rapidly measure, i.e. within 5 days, the effect of such a compound on the overall cell growth. The test measures the number of metabolically active living cells that are able to transform the yellow product 3-(4,5-dimethylthiazol-2-yl)-2,5-diphenyl tetrazolium bromide (herein referred as MTT) into the blue product formazan dye by mitochondrial reduction. The amount of formazan obtained at the end of the experiment was measured by means of a spectrophotometer and is directly proportional to the number of living cells. Determination of the optical density enables a quantitative measurement of the effect of the investigated compounds as compared to the control condition (untreated cells) and/or to other reference compounds (in casu mitonafide and amonafide).
Six human cancer cell lines described in table 1 were used in the MTT tests. These cell lines cover four histological cancer types, being glioma, colon, lung and breast cancers. Cells were allowed to grow in 96-well micro-wells with a flat bottom with an amount of 100 μl of cell suspension per well with 1,000 to 4,000 cells/well depending on the cell type used. Each cell line was seeded in an MEM 5% serum culture medium.
The detailed experimental procedure was as follows: after a 24-hour period of incubation at 37° C., the culture medium was replaced by 100 μl of fresh medium in which the compound to be tested was dissolved at the following molar concentrations: 10^−9 M, 5.10^−9 M, 10^−8 M, 5.10^−8 M, 10^−7 M, 5.10^−7 M, 10^−6 M, 5.10^−6 M and 10^−5 M. Each experiment was repeated 6 times.
After 72 hours of incubation at 37° C. with (experimental conditions) or without (control condition) the compound to be tested, the medium was replaced by 100 μl MTT dissolved in RPMI at a concentration of 1 mg/ml. The micro-wells were subsequently incubated during 3 hours at 37° C. and centrifuged at 400 g during 10 minutes. MTT was removed and formazan crystals formed were dissolved in 100 μl DMSO. The micro-wells were shaken for 5 minutes and read on a spectrophotometer at wavelengths of 570 nm (maximum formazan absorbance) and 630 nm (background noise).
For each experimental condition, the mean optical density was calculated, as well as the percentage of remaining living cells in comparison with the control.

L1210 (Mouse Leukemia) = assay: L1210 mouse leukemia model, survival; assay type: in vivo, mice; conditions: median day of death treated/control; for response vs control in vivo at 10 mg/kg / response vs control in vivo at 20 mg/kg / response vs control in vivo at 40 mg/kg / response vs control in vivo at 80 mg/kg / response vs control in vivo at 2.5 mg/kg / response vs control in vivo at 5 mg/kg: Mus musculus, L1210, ip; for response vs control in vivo at 2.5 mg/kg: read-out: T/C (%), dose 2.5 mg/kg intraperitoneally at days 1, 2, 3, 4, 7, 8, 9 and 10; for response vs control in vivo at 5 mg/kg: read-out: T/C (%), dose 5 mg/kg intraperitoneally at days 1, 2, 3, 4, 7, 8, 9 and 10
Description: L1210 is a syngeneic model (Mouse Leukemia) which may be used to define an optimal treatment regimen (doses and schedule) for subsequent testing of drugs in more expensive and time-consuming orthotopic human xenograft models. The model was performed with 5 mice per group, said mice being grafted at day 0 and the tested compounds being injected intraperitoneally (at the dose indicated in table 4) at days 1, 2, 3, 4, 7, 8, 9 and 10 respectively. The data shown in table 4 are T/C values which were calculated by dividing the median day of death in a treated group T by the median day of death in the control group C. T/C values of 130% or more (i.e. a prolongation of mice survival of 30% or more) indicate a significant prolongation of survival.
The experimental procedure of example 25 was repeated with compounds of examples 17, 19, 33 and 35, and the data obtained from this experiment are reported in table 7.

in vivo = conditions: mouse
Description: (§1) The maximum tolerated dose (herein after MTD) is defined as the maximum amount of a given drug which can be administered acutely (i.e. in one intraperitoneal, intravenous, subcutaneous or oral single dose) to healthy animals, i.e. animals not grafted with tumors. The survival times and weights of the animals are recorded up to 14 days post injection. Five different doses of each drug are used for the determination of the MTD index. […] Each experimental group comprised 3 mice for the determination of the MTD index (expressed in mg/kg).

healthy animals = conditions: single dose to healthy mice, 3 mice per group, survival and weights recorded up to 14 days post injection
Description: as §1

leukemia models in mice = conditions: background statement; cited from earlier work
[2] = system: human tumour xenografts in mice with colon, lung and mammary cancers; conditions: background statement; cited from earlier work
[3] = system: primary human solid tumours; conditions: Ajani et al. Invest New Drugs (1988) 6:79-83; cited from earlier work
patients = patients receiving five daily doses; leading to some deaths; cited from earlier work
[4] = read-out: T/C (%), dose 10 mg/kg intraperitoneally at days 1, 2, 3, 4, 7, 8, 9 and 10
[5] = read-out: T/C (%), dose 20 mg/kg intraperitoneally at days 1, 2, 3, 4, 7, 8, 9 and 10
[6] = dose 10 mg/kg intraperitoneally at days 1, 2, 3, 4, 7, 8, 9 and 10, read-out: T/C (%)
[7] = dose 20 mg/kg intraperitoneally at days 1, 2, 3, 4, 7, 8, 9 and 10, read-out: T/C (%)
[8] = dose 40 mg/kg intraperitoneally at days 1, 2, 3, 4, 7, 8, 9 and 10, read-out: T/C (%)
[9] = dose 80 mg/kg intraperitoneally at days 1, 2, 3, 4, 7, 8, 9 and 10, read-out: T/C (%)
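For MTD in this document: highest single acute dose (intraperitoneal, intravenous, subcutaneous or oral) tolerated by tumor-free mice, assessed across five dose levels per drug.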

Compound	MTD at 14 days (in vivo) [mg/kg]	IC50 ([1]; Homo sapiens, 72 h) [µM]	response vs control in vivo at 10 mg/kg (L1210 (Mouse Leukemia); [6]) [%]	response vs control in vivo at 20 mg/kg (L1210 (Mouse Leukemia); [7]) [%]	response vs control in vivo at 40 mg/kg (L1210 (Mouse Leukemia); [8]) [%]	response vs control in vivo at 80 mg/kg (L1210 (Mouse Leukemia); [9]) [%]	MTD at 14 days (in vivo; intraperitoneal) [mg/kg]	also measured
CN(C)CCN1C(=O)c2cccc3cc(NC(=O)NC(=O)C(Cl)(Cl)Cl)cc(c23)C1=O [Example 2, 2,2,2-trichloro-N-[({2-[2-(dimethylamino)ethyl]-1,3-dioxo-2,3-dihydro-1H-benzo[de]isoquinolin-5-yl}amino)carbonyl]acetamide]	> 160							IC50 [1]: 0.5 to 1 µM; response vs control in vivo at 10 mg/kg (L1210 (Mouse Leukemia); [4]): 128%; response vs control in vivo at 20 mg/kg (L1210 (Mouse Leukemia); [5]): 156%; response vs control in vivo at 40 mg/kg (L1210 (Mouse Leukemia); read-out: T/C (%), dose 40 mg/kg intraperitoneally at days 1, 2, 3, 4, 7, 8, 9 and 10): 177%; response vs control in vivo at 80 mg/kg (L1210 (Mouse Leukemia); read-out: T/C (%), dose 80 mg/kg intraperitoneally at days 1, 2, 3, 4, 7, 8, 9 and 10): 194%
CN(C)CCN1C(=O)c2cccc3cc(NC(=O)Nc4ccc(C#N)cc4)cc(c23)C1=O [Example 7, N-[2-[2-(dimethylamino)ethyl]-1,3-dioxo-2,3-dihydro-1H-benzo[de]isoquinolin-5-yl]-N′-(4-cyanophenyl)urea]		1 to 5	140	147	147	213	> 160	
CN(C)CCN1C(=O)c2cccc3cc(NC(=O)Nc4ccc5c(c4)OCO5)cc(c23)C1=O [Example 9]		5 to 10	113	140	160	187	> 160	
CN(C)CCN1C(=O)c2cccc3cc(NC(=O)Nc4ccc(OC(F)(F)F)cc4)cc(c23)C1=O [Example 10]		1 to 5	117	156	139	194	> 160	
CN(C)CCN1C(=O)c2cccc3cc(N=Cc4ccc5c(c4)OCO5)cc(c23)C1=O [Example 17, 5-{[(1Z)-1,3-benzodioxol-5-ylmethylene]amino}-N-{2-[2-(dimethylamino)ethyl]-1H-benzo[de]isoquinoline-1,3(2H)-dione]		> 10	120	233	207	280	80	
CN(C)CCN1C(=O)c2cccc3cc(/N=C\c4cc(O)ccc4O)cc(c23)C1=O [Example 19, 2-[2-(dimethylamino)ethyl]-5-{[(1Z)-(2,5-dihydroxyphenyl)methylene]amino}-1H-benzo[de]isoquinoline-1,3(2H)-dione]		10	150	144	231	275	80	
CN(C)CCN1C(=O)c2cccc3cc(NC(=O)NC(=O)C(Cl)(Cl)Cl)cc(c23)C1=O.Cl [Example 33, 2,2,2-trichloro-N-[({2-[2-(dimethylamino)ethyl]-1,3-dioxo-2,3-dihydro-1H-benzo[de]isoquinolin-5-yl}amino)carbonyl]acetamide hydrochloride]	120							IC50 ([1]; hydrochloride): 5 to 10 µM; T/C (%) (L1210 (Mouse Leukemia); dose 10 mg/kg intraperitoneally at days 1, 2, 3, 4, 7, 8, 9 and 10): 148%; T/C (%) (L1210 (Mouse Leukemia); dose 20 mg/kg intraperitoneally at days 1, 2, 3, 4, 7, 8, 9 and 10): 138%; T/C (%) (L1210 (Mouse Leukemia); dose 40 mg/kg intraperitoneally at days 1, 2, 3, 4, 7, 8, 9 and 10): 186%; T/C (%) (L1210 (Mouse Leukemia); dose 80 mg/kg intraperitoneally at days 1, 2, 3, 4, 7, 8, 9 and 10): 200%
CN(C)CCN1C(=O)c2cccc3cc(/N=C\c4cc(O)ccc4O)cc(c23)C1=O.Cl [Example 34]								MTD (healthy animals): 40 mg/kg
CN(C)CCN1C(=O)c2cccc3cc(N=Cc4cc5c(cc4[N+](=O)[O-])OCO5)cc(c23)C1=O [Example 35, 5-{[(1Z)-benzo([1,3]dioxol-6-nitro)-5-yl-methylene]amino}-N-(2-[2-dimethylamino)ethyl]-1H-benzo[de]isoquinolin-1,3(2H)-dione]	80	> 10	213	193	280	> 300		
CN(C)CCN1C(=O)c2cccc3cc(NCc4ccc5c(c4)OCCO5)cc(c23)C1=O [Example 42]	> 80	5 to 10						
CN(C)CCN1C(=O)c2cccc3cc(N)cc(c23)C1=O [amonafide, N-(2-dimethylaminoethyl)-3-amino-1,8-naphthalimide, reference compound]	40	1 to 5						response vs control in vivo at 2.5 mg/kg (L1210 (Mouse Leukemia)): 120%; response vs control in vivo at 5 mg/kg (L1210 (Mouse Leukemia)): 140%; response vs control in vivo at 10 mg/kg (L1210 (Mouse Leukemia); [4]): 120%; response vs control in vivo at 20 mg/kg (L1210 (Mouse Leukemia); [5]): 120%; activity in leukemia models in mice (leukemia models in mice): only moderate activity; activity in human tumour xenografts in mice [2]: no activity; activity in primary human solid tumours in vitro [3]: poor activity; myelotoxicity in patients (patients): substantial myelotoxicity
CN(C)CCN1C(=O)c2cccc3cc([N+](=O)[O-])cc(c23)C1=O [mitonafide, reference compound]	40	1 to 5						response vs control in vivo at 2.5 mg/kg (L1210 (Mouse Leukemia)): 107%; response vs control in vivo at 5 mg/kg (L1210 (Mouse Leukemia)): 140%; response vs control in vivo at 10 mg/kg (L1210 (Mouse Leukemia); [4]): 120%; response vs control in vivo at 20 mg/kg (L1210 (Mouse Leukemia); [5]): 193%
